Data on five molecules can be found in patent publication US4454126A, “Phosphoramide derivatives and medicines containing the same” (priority 1981, dated 1984).

One series addresses T1, Jack bean urease (Canavalia ensiformis, UniProt P07374).
T1 construct: Urease extracted from Jack beans and then purified; from tissue; host or cells: Jack beans
The experiment in a line: Urease inhibition effects - Jack bean urease. It counts as biochemical, Jack beans. Particulars: read-out: 50% Urease inhibition conc. I50. The method, then: (§1) Urease extracted from Jack beans and then purified and urease produced by Proteus mirabilis were used. The molar concentration of the test compound that inhibited 50% of the urease present was determined by the method of Kobashi et al, Biochim. Biophys. Acta, 227, 429-441 (1971), and the method of Okuda et al, Saishin Igaku (The Latest Medical Science) 21(3), 622-627 (1966).

The target of series [1] is T2, urease produced by Proteus mirabilis (Proteus mirabilis, UniProt P17086).
T2 construct: intact Proteus mirabilis cells and cell-free preparation
T2 sequence (P17086 whole entry): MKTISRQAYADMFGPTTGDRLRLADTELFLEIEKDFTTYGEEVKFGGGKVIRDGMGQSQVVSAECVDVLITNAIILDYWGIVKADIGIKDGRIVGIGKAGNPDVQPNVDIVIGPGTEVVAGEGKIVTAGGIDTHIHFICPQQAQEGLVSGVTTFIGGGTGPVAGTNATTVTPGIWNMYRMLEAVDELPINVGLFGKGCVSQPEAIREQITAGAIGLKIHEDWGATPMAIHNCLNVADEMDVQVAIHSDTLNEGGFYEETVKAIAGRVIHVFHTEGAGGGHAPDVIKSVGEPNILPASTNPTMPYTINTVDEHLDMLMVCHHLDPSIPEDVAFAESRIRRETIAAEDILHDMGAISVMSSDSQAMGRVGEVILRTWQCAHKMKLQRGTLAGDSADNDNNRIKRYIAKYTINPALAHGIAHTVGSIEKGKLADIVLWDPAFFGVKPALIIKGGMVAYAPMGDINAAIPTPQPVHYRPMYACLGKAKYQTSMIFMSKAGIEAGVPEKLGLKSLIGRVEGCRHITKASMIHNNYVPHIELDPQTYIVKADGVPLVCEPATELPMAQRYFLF
T2 sequence (P17088 whole entry, further chain): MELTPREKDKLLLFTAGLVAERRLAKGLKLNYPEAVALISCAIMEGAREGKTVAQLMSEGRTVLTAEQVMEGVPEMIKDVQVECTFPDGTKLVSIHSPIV
T2 sequence (P17087 whole entry, further chain): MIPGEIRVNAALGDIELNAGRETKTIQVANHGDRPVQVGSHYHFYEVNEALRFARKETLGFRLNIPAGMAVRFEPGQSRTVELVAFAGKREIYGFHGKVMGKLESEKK
The experiment in a line: Urease inhibition effects - Proteus mirabilis urease, intact cell. It is filed as cell-based. The conditions noted are these: read-out: 50% Urease inhibition conc. I50. On the procedure: as §1

The target of series [2] is T2, urease produced by Proteus mirabilis. The experiment in a line: Urease inhibition effects - Proteus mirabilis urease, cell free. It counts as biochemical. Particulars: read-out: 50% Urease inhibition conc. I50. On the procedure: as §1
The nature of series [3]: Rate of migration into urine. The conditions noted are these: rat, in vivo, po; 50 mg/kg perorally, S.D. rats, urine excreted for 24 hrs; read-out: Rate of migration into urine, Average ± S.E. On the procedure: 50 mg/kg of a test compound was administered perorally to S.D. rats weighing around 200 g. The urease-inhibition capacity of urine excreted for 24 hrs. thereafter was measured. The rate of migration into urine of each test compound was determined by the method of Kobashi et al, Yakugaku Zasshi 93(12), 1564-1572 (1973) and J. Biochim. 83, 287-293 (1973).

The subject of a further series is Proteus mirabilis. In words: Inhibition of the formation of vesical calculi in rats infected with Proteus mirabilis. It counts as in vivo, Female S.D. rats. The conditions noted are these: peroral, five days from four days after inoculation, none: 34.5 ± 2.6 mg. From the text: Female S.D. rats weighing about 200 g were inoculated with Proteus mirabilis in their bladders to cause infection. Four days after the inoculation peroral administration of a test compound was begun and the administration was continued for five days. The calculi formed in the bladder in each rat were weighed.

A short description of another series: Acute toxicity. It counts as in vivo, S.D. rats. Particulars: peroral; for LD50: rat, in vivo, po, in 0.5% carboxymethylcellulose. The text has this:
Acute toxicities of test compounds were examined by the peroral administration of the test compounds, suspended in 0.5% carboxymethylcellulose, to male and female S.D. rats (8 weeks old).

T1 sequence (P07374 whole entry, looked up): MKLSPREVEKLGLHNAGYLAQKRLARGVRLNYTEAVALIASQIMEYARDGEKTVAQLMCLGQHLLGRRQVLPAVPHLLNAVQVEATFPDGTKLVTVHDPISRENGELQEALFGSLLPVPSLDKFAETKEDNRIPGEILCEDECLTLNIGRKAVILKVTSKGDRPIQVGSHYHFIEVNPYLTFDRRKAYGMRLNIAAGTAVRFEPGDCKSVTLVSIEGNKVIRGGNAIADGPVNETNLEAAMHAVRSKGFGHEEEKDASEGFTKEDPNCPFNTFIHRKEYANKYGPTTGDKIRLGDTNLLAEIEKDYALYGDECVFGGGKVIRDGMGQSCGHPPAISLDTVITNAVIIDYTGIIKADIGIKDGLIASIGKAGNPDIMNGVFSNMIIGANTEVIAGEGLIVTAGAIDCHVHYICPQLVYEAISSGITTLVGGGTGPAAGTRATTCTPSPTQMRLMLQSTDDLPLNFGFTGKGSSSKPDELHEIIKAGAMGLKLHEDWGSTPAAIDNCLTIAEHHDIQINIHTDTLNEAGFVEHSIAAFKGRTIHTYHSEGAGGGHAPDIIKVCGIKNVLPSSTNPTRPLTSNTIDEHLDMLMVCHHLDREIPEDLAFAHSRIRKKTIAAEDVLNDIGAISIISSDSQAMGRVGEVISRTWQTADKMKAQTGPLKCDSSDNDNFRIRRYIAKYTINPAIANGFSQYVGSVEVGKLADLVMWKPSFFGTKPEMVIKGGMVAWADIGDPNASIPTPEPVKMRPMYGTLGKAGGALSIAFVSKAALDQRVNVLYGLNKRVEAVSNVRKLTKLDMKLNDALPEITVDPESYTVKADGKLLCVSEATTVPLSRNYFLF

Regarding `CC(C)CC(=O)NP(N)(N)=O` [Compound C, N-(diaminophosphinyl)-3-methylbutanamide], the IC50 at Jack bean urease is 1.6 µM; in series [1] it was 0.068 µM; in series [2], 0.061 µM.

In the case of `CC(C)=CC(=O)NP(N)(N)=O` [Compound A, N-(diaminophosphinyl)-3-methyl-2-butenamide], the figures for the IC50 (at Jack bean urease; in series [1]; in series [2]) were 0.63 µM, 0.018 µM and 0.016 µM, respectively. The dose excreted at 24 h in series [3] stood at 29.6 ± 2.1%. In addition, the “Weight of calculi (Average ± S.E.)” value with Proteus mirabilis (12.5 mg/kg per day) is 10.7 ± 3.9 mg; with Proteus mirabilis (50 mg/kg per day) it was 10.9 ± 2.8 mg. For the same molecule, in the series “Acute toxicity” (S.D. rats), the “Acute toxicity, in words” value was “only a very low toxitity”. Besides, the LD50 is over 4240 mg/kg in the series “Acute toxicity” (female S.D. rats (8 weeks old)) and over 6000 mg/kg in the series “Acute toxicity” (male S.D. rats (8 weeks old)).

For `NP(N)(=O)NC(=O)c1ccccc1` [Control Compound, N-(diaminophosphinyl)benzamide, reference compound], the IC50 at Jack bean urease was determined as 0.6 µM; in series [1], 0.018 µM; in series [2] it was 0.013 µM. Also, in series [3], the dose excreted at 24 h worked out at 21 ± 2.7%. The “Weight of calculi (Average ± S.E.)” value in the series with Proteus mirabilis (12.5 mg/kg per day) is 22.5 ± 4.0 mg.

`CC(=CC(=O)NP(N)(N)=O)CCCC(C)C` [Compound B, N-(diaminophosphinyl)-3,7-dimethyl-2-octenamide]: the IC50 stood at 5.2 µM at Jack bean urease, 0.015 µM in series [1] and 0.016 µM in series [2].

Take `CC(C)CCCC(C)CC(=O)NP(N)(N)=O` (stereo not shown) [Compound D, N-(diaminophosphinyl)-3,7-dimethyloctanamide]: the IC50 was 0.87 µM on Jack bean urease and 0.014 µM in series [1].
